`CC(C)(C)OC(=O)c1ccc(C=NON)cc1` gave a melting point of 153 to 155 °C. `Cc1nc(-c2cn(Cc3ccccc3)nn2)sc1C(=O)NCc1cccnc1` showed a melting point of 212 to 213 °C. Compound `Cc1cc(-c2c(-c3ccc(S(C)(=O)=O)cc3)cnn(CC(F)(F)F)c2=O)ccc1F` has a melting point of 88 to 91 °C. Compound `O=[N+]([O-])c1ccc2oc(-c3ccco3)nc2c1` has a melting point of 175 to 177 °C. In the case of `CC(C)n1nc(-c2sc(NC(=O)c3ccc4ccccc4c3)nc2-c2ccccc2)ccc1=O`, the melting point is reported as 227 to 229 °C. With `CCCCCCCCCCCCCCCCC[C@H](O)C[C@@H]1OC(=O)[C@H]1CC` the melting point was 80 to 82 °C. `Cn1cc(C(=O)NCc2ccc(Cl)cc2)c(=O)c2cc(CN3CCOCC3)sc21` gave a melting point of 230 to 236 °C. With `O=c1c2[nH]nnc2nc2sc(CCc3ccccc3)nn12` the melting point was 295 to 296 °C. In the case of `COC(=O)c1ccc(C(O)c2cc3cc(C(F)(F)F)ccc3n2S(=O)(=O)c2ccc(C(C)C)cc2)cc1` (stereo unspecified), the melting point is reported as 68 °C. Work on `N#Cc1ccc(Cc2cccc3c2CCN(Cc2cncn2Cc2ccc(C#N)cc2)C3)cc1` yielded a melting point of 195 to 196 °C. Work on `CC(C)(C)OC(=O)NCCn1cnc2cnc3ccccc3c21` yielded a melting point of 154 to 155 °C. Compound `O=C(O)c1ccc(CSc2nnc(-c3ccc4c(c3)CCO4)o2)cc1` has a melting point of 203 to 205 °C. `CC(=O)Oc1ccc2c(c1)Oc1ccccc1C2=C1C2CC3CC(C2)CC1C3` gave a melting point of 162 to 163 °C. `CC(C)CCCC(C)C1CCC2C3CCC4CC(=O)CC(C)C4(C)C3CCC12C` (stereo unspecified) showed a melting point of 132 to 133 °C. `CC(C)(C)OC(=O)[C@H]1CC[C@@H](c2ccccn2)N1C(=O)CNC(=O)Nc1cccc(C(=O)O)c1` (racemic) showed a melting point of 174 °C. Work on `[N-]=[N+]=C(C(=O)CCc1ccccc1)C(=O)CCc1ccccc1` yielded a melting point of 62.6 to 64 °C. `CC(=Cc1ccccc1)c1ccc2c(c1)C(C)(C)CC(O)C2(C)C` (stereo unspecified) showed a melting point of 102 to 103 °C. `CCOC(=O)COc1cccc2nc3c(c(N)c12)CCCC3` showed a melting point of 141 to 142 °C. Work on `CCOC(=O)CNc1ncccc1[N+](=O)[O-]` yielded a melting point of 38 to 39 °C. With `O=CN1CCN(CCSc2nc3ccccc3[nH]2)CC1` the melting point was 146 to 148 °C. With `CC1CCN(CC#CCN2C(=O)c3cccc4c3N(CC4)c3ccccc32)CC1` the melting point was 157 to 158 °C. `S=C(Nc1ccc(Br)cn1)N[C@@H]1C[C@@H]1c1ccccc1` showed a melting point of 192 to 193 °C. Work on `COc1ccc(Cl)cc1N1CCN(CCCNC(=O)c2cccc3c(=O)c(C)c(C(=O)N(C)C)oc23)CC1` yielded a melting point of 151 to 153 °C. Compound `Cc1ccc(S(=O)(=O)OCC2(C)Cc3cc(Cl)cc(OS(=O)(=O)C(F)(F)F)c3O2)cc1` (stereo unspecified) has a melting point of 100 to 102 °C. `O=c1[nH]c(=Cc2ccco2)c(=O)[nH]c1=Cc1ccc(OCc2ccccc2)cn1` showed a melting point of 256 to 257 °C. For `CC1(C)C(=O)NC(=O)c2c1ccc(NC(=O)c1ccccc1)c2[N+](=O)[O-]`, the melting point was > 270 °C. In the case of `CSC(=Nc1ccccc1)N(c1ccccc1)c1nc(C)cc(C)n1`, the melting point is reported as 101 to 103 °C. `O=C(Nc1ccc(F)cc1F)C1c2ccccc2COc2ccc(Br)cc21` (stereo unspecified) showed a melting point of 189 to 191 °C. In the case of `CCCCC(CC)Cn1c2ccc(Br)cc2c2cc(Br)ccc21` (stereo unspecified), the melting point is reported as 62.4 to 63.6 °C. Compound `Cc1cc(-c2nnc3c4ccccc4c(OCn4cccn4)nn23)no1` has a melting point of 235 to 237 °C. `CN(C)C1(c2cccs2)CCC(=O)CC1` showed a melting point of 102 to 103 °C. With `CC(=O)c1ccc(Cl)nc1` the melting point was 101 to 102 °C. Compound `COC(C)=C(C(=O)OC(c1ccccc1)c1ccccc1)N1C(=O)C(NC(=O)C(NC(=O)OC(C)(C)C)c2ccccc2)C1SS(=O)(=O)c1ccc(C)cc1` (stereo unspecified) has a melting point of 204 to 206 °C. `CC(=O)N1CCN=C1Nc1cc(C)nn1-c1ccccc1` showed a melting point of 153 to 162 °C. `Cc1nccnc1OCC1COC(C)(C)O1` (stereo unspecified) showed a melting point of 77 to 78 °C. Compound `CCc1c(-c2ccc(O)cc2)c2ccc3ccc(COCCN4CCCC4)c1n32` has a melting point of 183 to 187 °C. For `CCCNC1=NS(=O)(=O)c2sc(Cl)cc2N1`, the melting point was 258 to 261 °C. `Nc1nc2c(Cc3ccsc3)c[nH]c2c(=O)[nH]1` showed a melting point of 222 to 224 °C. `O=C(NCc1ccccc1)c1ccc2[nH]ccc2c1` gave a melting point of 155 to 160 °C. Compound `CCCc1c2nc(C(=O)OC)cc(NS(=O)(=O)c3ccc(C)cc3)c2cc2c(=O)cc(C(=O)OCC)oc12` has a melting point of 219 °C. With `CCOC(=O)C(=CNc1cscc1OC)C(=O)OCC` the melting point was 100 to 102 °C. `CCOC(=O)C(=CC=C(SC)C(=O)c1ccccc1)N(C)C` showed a melting point of 78 °C. Compound `O=C(Nc1ccc(-n2nc(C(F)(F)F)cc2OC(F)F)cc1)c1ccncc1F` has a melting point of 135 to 136 °C. For `CCNc1nc(N)c(SC)c(Cl)n1`, the melting point was 124 °C. In the case of `O=C(NO)c1ccc(C(=O)NOCc2ccc3ccccc3c2)cc1`, the melting point is reported as 220 to 222 °C. `Cc1cc(Br)cc(-c2ccc3c(c2)C(C)(C)OC(=S)N3)c1` gave a melting point of 183 to 184 °C. In the case of `CCCCCCC(=O)C=Cc1ccc(OC(C)=O)c(OC(C)=O)c1`, the melting point is reported as 71 to 72 °C. For `Nc1ccccc1NC(=O)Nc1ccc(-c2ccc(C(=O)N3CCN4CCC3CC4)o2)cc1`, the melting point was 174 °C. With `Cc1ccnc(-c2ccc([N+](=O)[O-])cc2)c1` the melting point was 145 to 147 °C. Work on `N#Cc1ccc(N(Cc2ccc(OCc3ccccc3)cc2)n2cnnc2)cc1-c1ccoc1` yielded a melting point of 155 to 156 °C. For `c1ccn(Nc2ccncn2)c1`, the melting point was 134 to 136 °C. For `Cc1nc2nsc(N)c2s1`, the melting point was 164 to 167 °C. `CCN(c1ccccc1)c1nc(=O)c2cccnc2s1` gave a melting point of 174 to 175 °C. `CNc1nccc(-c2c(-c3ccc(F)cc3)ccn2C2CCNCC2)n1` showed a melting point of 189 to 191 °C. Compound `CC(C)Sc1c(N)cccc1C#N` has a melting point of 82 °C. Work on `c1cc(-c2n[nH]c3c2Cc2cc(CN4CCOCC4)ccc2-3)cs1` yielded a melting point of 196 to 198 °C. Work on `CCOC(=O)C(CC(=O)c1ccc(OC)cc1)(NC(C)=O)C(=O)OCC` yielded a melting point of 120 to 122 °C. Work on `O=C(CCCN1CCC2(CC(O)c3cc(Cl)cc(Cl)c32)C1)c1ccc(F)cc1` (stereo unspecified) yielded a melting point of 149 to 152 °C. `CCCc1c(OCCCOc2ccc(CC(=O)O)cc2Br)ccc(C(C)=O)c1O` gave a melting point of 111 to 112 °C. In the case of `Nc1nnc(-c2ccc3ncn(-c4cccc(OC(F)(F)F)c4)c3c2)o1`, the melting point is reported as 215 to 216 °C. `CCCCc1nc2cccc(C(=O)OC)c2[nH]1` showed a melting point of 85 °C. In the case of `CCC1(c2ccncc2)CCC(=O)NC1=O` (stereo unspecified), the melting point is reported as 134 to 136 °C. `O=C(Nc1cccnn1)N1CCN(c2nccc(-c3cc(F)ccc3F)n2)CC1` gave a melting point of 271 to 272 °C. For `Fc1cc(/C=C/c2nc(COc3ccc(CCCCn4ccnn4)cc3)co2)ccc1Cl`, the melting point was 146 to 149 °C. Compound `Cn1nc2nc(C(C)(C)C)[nH]c(=O)c2c1N(S(C)(=O)=O)S(C)(=O)=O` has a melting point of 258 to 259 °C. In the case of `CCOC(=O)/C=C/c1ccc(OCc2nc(-c3ccccc3)oc2C)nc1`, the melting point is reported as 109 to 110 °C. For `O=C(O)c1ccc2oc(COCc3ccccc3)cc2c1`, the melting point was 129 to 132 °C. `O=C(c1ccccc1Cl)c1cc(Cl)ccc1-n1ccnc1` gave a melting point of 146 to 148 °C. In the case of `O=C(NCc1ccccn1)Nc1cc(N2CC(c3cccc(F)c3)CC2=O)ccn1` (stereo unspecified), the melting point is reported as 188 to 189 °C. Work on `COc1ccc2c(c1)N=C(N1CCN(C)CC1)c1cccc3c1N2CC3` yielded a melting point of 152 to 155 °C. `CCOCn1cc(C(C)=O)c2c(OC)cc(Br)nc21` gave a melting point of 114 to 116 °C. `Cc1c(C)c2c(c(C)c1OC=O)SC(CCCI)O2` (stereo unspecified) showed a melting point of 91 to 93 °C. `C#CCN1CCCc2ccc(OC(=O)Nc3ccccc3OC)cc21` gave a melting point of 83 °C. For `N=C(NC(=O)c1ccccc1)N1CCc2[nH]cnc2C1`, the melting point was 228 °C. `O=C1CCCCC1C(C[N+](=O)[O-])c1ccc(Cl)c(Cl)c1` (racemic) showed a melting point of 109 to 110 °C. In the case of `CC(C)(C)c1ccc(-c2nnc(-c3ccc(C(=O)O)cc3N)o2)cc1`, the melting point is reported as 266 to 268 °C. `O=C(CCCN1CC=C(c2noc(C3CC3)n2)CC1)c1ccc(F)cc1` showed a melting point of 67 to 68 °C. `COc1ccc(C2SCCS2)cc1` showed a melting point of 62 to 63 °C. Compound `Clc1ccc(C2Cc3cnc(Nc4ccc(CCN5CCOCC5)cc4)nc3-c3ccccc32)cc1Cl` (stereo unspecified) has a melting point of 166 to 167 °C. For `O=C(OCc1ccccc1)[C@@H]1CCCN1C(=O)CNC1Cc2ccccc2C1`, the melting point was 96 to 98 °C. In the case of `Cn1c2ccc(F)cc2c(=O)n2nc(C(N)=O)cc12`, the melting point is reported as > 350 °C. In the case of `O=C(O)CCCCCNC(=O)CCC(=O)Nc1cccc2ccccc12`, the melting point is reported as 229 to 231 °C. `Cc1cc(NCc2ccccc2)n(C)n1` gave a melting point of 95 to 97 °C. Work on `c1ccc(-n2cc3c(n2)-n2cccc2C3(Cc2ccncc2)Cc2ccncc2)cc1` yielded a melting point of 169 to 170 °C. Work on `O=C(O)c1ccc(N2C(=O)C(=Cc3ccccc3)SC2=S)cc1` yielded a melting point of 298 to 301 °C. Compound `CCCC1=C(Cl)C(=O)c2ccccc2C1=O` has a melting point of 71 to 73 °C. `COc1cc(C#N)ccc1-c1ccnc(-c2ccc(C#N)cc2)n1` gave a melting point of 239 to 240 °C. `COc1cc(C=O)ccc1OCc1nc(-c2cccc([N+](=O)[O-])c2)oc1C` showed a melting point of 179 to 180 °C. Work on `CCOC(=O)c1c(C)nc(-c2ccccc2)nc1-c1ccc(OC(C)=O)c([N+](=O)[O-])c1` yielded a melting point of 147 to 148 °C. In the case of `COc1ccccc1-n1c(=O)[nH]c2c(C(N)=O)nc(C3CCCC3)nc21`, the melting point is reported as 244 to 246 °C. Compound `COc1ccc(-c2cc(=O)n(C(C)C)nc2-c2ccc(OC)cc2)cc1` has a melting point of 128 to 129 °C. With `CN1CC(O)C(O)C(O)C1CO` (stereo unspecified) the melting point was 142 to 143 °C. Compound `CC(C)(C)OC(=O)N1C[C@@H](Br)C[C@@H]1C(=O)OCc1ccccc1` has a melting point of 87 to 88 °C. In the case of `NS(=O)(=O)c1cc2[nH]c(C(F)F)nc2cc1Cl`, the melting point is reported as 233 to 235 °C. For `COC(=O)C(CO)N(Cc1ccccc1N)S(=O)(=O)c1ccc(OC)cc1` (stereo unspecified), the melting point was 138 to 140 °C. Work on `Cc1ccc2nc(C3(c4ccc(S(N)(=O)=O)cc4)C=C(C(F)(F)F)NN3)sc2c1` (stereo unspecified) yielded a melting point of 257 to 258 °C. `O=S(=O)(c1nc(-c2ccc(Cl)c(Cl)c2)c(-c2cccs2)[nH]1)C(F)(F)C(F)F` showed a melting point of 158 to 160 °C. Compound `CCC(C)C(NC(=O)N1CCCCCC1)C(=O)NC(Cc1ccc(OCc2ccccc2)cc1)C(=O)OC(C)(C)C` (stereo unspecified) has a melting point of 53 to 57 °C. For `COc1ccc(NC(C)=S)cc1C`, the melting point was 88.5 to 89 °C. In the case of `O=C(CCc1ccc(OCCS(=O)(=O)CCOC(c2ccc(Cl)cc2)c2ccc(Cl)cc2)cc1)C(F)(F)F`, the melting point is reported as 98 to 100 °C. `Cc1c(C)c2c(c(C)c1N)CC(C)(CN1CCN(C)CC1)O2` (stereo unspecified) showed a melting point of 76 to 77 °C.
